Source: PubChem BioAssay AID248 (DTP/NCI, 2004)
Where “and” joins values, the source holds several entries; their conditions need not be identical. Equal values may be shown once. Inconclusive results and toxic doses are left out.

Tested on: L1210 leukemia ip in BDF1 mice, survival T/C
Experiment: NCI In Vivo Anticancer Drug Screen. Data for tumor model L1210 Leukemia (intraperitoneal) in B6D2F1 (BDF1) mice
Conditions: higher = longer survival
Outline: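 Antitumor effect is assessed in tumor-bearing animals. Survival in the compound arm is compared with a vehicle-dosed control arm and expressed as their quotient.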

[1] = endpoint: mean survival time, dose: 100.0 mg/kg/injection, schedule: Q04DX003 (ip), vehicle: saline
[2] = endpoint: mean survival time, dose: 200.0 mg/kg/injection, schedule: Q04DX003 (ip), vehicle: saline
[3] = endpoint: mean survival time, dose: 100.0 mg/kg/injection, schedule: Q04DX003 (ip), vehicle: saline with Tween-80
[4] = endpoint: mean survival time, dose: 400.0 mg/kg/injection, schedule: Q04DX003 (ip), vehicle: saline with Tween-80

## S=P(N1CCOCC1)(N1CC1)N1CC1
endpoint: mean survival time, dose: 2.4 mg/kg/injection, schedule: Q01DX001 (ip), vehicle: saline
  T/C: 106 % of control
endpoint: mean survival time, dose: 2.4 mg/kg/injection, schedule: Q07DX003 (ip), vehicle: saline
  T/C: 104 % of control
endpoint: mean survival time, dose: 2.5 mg/kg/injection, schedule: Q01DX Z (ip), vehicle: carboxymethylcellulose (CMC)
  T/C: 109 % of control
endpoint: mean survival time, dose: 2.5 mg/kg/injection, schedule: Q#A X Z (ip), vehicle: saline
  T/C: 102 % of control
endpoint: mean survival time, dose: 4.3 mg/kg/injection, schedule: Q01DX001 (ip), vehicle: saline
  T/C: 117 % of control
endpoint: mean survival time, dose: 4.3 mg/kg/injection, schedule: Q07DX003 (ip), vehicle: saline
  T/C: 113 % of control
endpoint: mean survival time, dose: 5.0 mg/kg/injection, schedule: Q01DX006 (iv), vehicle: saline
  T/C: 107 % of control
endpoint: mean survival time, dose: 5.0 mg/kg/injection, schedule: Q01DX009 (ip), vehicle: saline
  T/C: 101 % of control and 104 % of control
endpoint: mean survival time, dose: 5.0 mg/kg/injection, schedule: Q01DX010 (ip), vehicle: saline
  T/C: 97 % of control and 103 % of control
endpoint: mean survival time, dose: 5.0 mg/kg/injection, schedule: Q01DX Z (im), vehicle: saline
  T/C: 104 % of control
endpoint: mean survival time, dose: 5.0 mg/kg/injection, schedule: Q01DX Z (ip), vehicle: carboxymethylcellulose (CMC)
  T/C: 102 % of control
endpoint: mean survival time, dose: 5.0 mg/kg/injection, schedule: Q01DX Z (ip), vehicle: saline
  T/C: 110 % of control
endpoint: mean survival time, dose: 5.0 mg/kg/injection, schedule: Q01DX Z (sc), vehicle: saline
  T/C: 107 % of control
endpoint: mean survival time, dose: 5.0 mg/kg/injection, schedule: Q#A X Z (ip), vehicle: saline
  T/C: 106 % of control
endpoint: mean survival time, dose: 8.7 mg/kg/injection, schedule: Q01DX001 (ip), vehicle: saline
  T/C: 103 % of control
endpoint: mean survival time, dose: 8.7 mg/kg/injection, schedule: Q07DX003 (ip), vehicle: saline
  T/C: 115 % of control
endpoint: mean survival time, dose: 10.0 mg/kg/injection, schedule: Q01DX006 (iv), vehicle: saline
  T/C: 109 % of control
endpoint: mean survival time, dose: 10.0 mg/kg/injection, schedule: Q01DX009 (ip), vehicle: saline
  T/C: 101 % of control and 104 % of control
endpoint: mean survival time, dose: 10.0 mg/kg/injection, schedule: Q01DX010 (ip), vehicle: saline
  T/C: 114 % of control and 124 % of control
endpoint: mean survival time, dose: 10.0 mg/kg/injection, schedule: Q01DX Z (im), vehicle: saline
  T/C: 114 % of control
endpoint: mean survival time, dose: 10.0 mg/kg/injection, schedule: Q01DX Z (ip), vehicle: carboxymethylcellulose (CMC)
  T/C: 115 % of control
endpoint: mean survival time, dose: 10.0 mg/kg/injection, schedule: Q01DX Z (ip), vehicle: saline
  T/C: 116 % of control
endpoint: mean survival time, dose: 10.0 mg/kg/injection, schedule: Q01DX Z (sc), vehicle: saline
  T/C: 107 % of control
endpoint: mean survival time, dose: 15.0 mg/kg/injection, schedule: Q03DX006 (ip), vehicle: saline
  T/C: 118 % of control
endpoint: mean survival time, dose: 17.5 mg/kg/injection, schedule: Q01DX001 (ip), vehicle: saline
  T/C: 106 % of control
endpoint: mean survival time, dose: 18.0 mg/kg/injection, schedule: Q01DX003 (ip), vehicle: saline
  T/C: 118 % of control
endpoint: mean survival time, dose: 20.0 mg/kg/injection, schedule: Q01DX009 (ip), vehicle: saline
  T/C: 108 % of control and 120 % of control
endpoint: mean survival time, dose: 20.0 mg/kg/injection, schedule: Q01DX010 (ip), vehicle: saline
  T/C: 118 % of control and 119 % of control
endpoint: mean survival time, dose: 20.0 mg/kg/injection, schedule: Q01DX Z (im), vehicle: saline
  T/C: 168 % of control
endpoint: mean survival time, dose: 20.0 mg/kg/injection, schedule: Q01DX Z (ip), vehicle: carboxymethylcellulose (CMC)
  T/C: 123 % of control
endpoint: mean survival time, dose: 20.0 mg/kg/injection, schedule: Q01DX Z (ip), vehicle: saline
  T/C: 160 % of control
endpoint: mean survival time, dose: 20.0 mg/kg/injection, schedule: Q01DX Z (oral), vehicle: saline
  T/C: 122 % of control
endpoint: mean survival time, dose: 26.0 mg/kg/injection, schedule: Q01DX003 (ip), vehicle: saline
  T/C: 166 % of control
endpoint: mean survival time, dose: 30.0 mg/kg/injection, schedule: Q03DX006 (ip), vehicle: saline
  T/C: 160 % of control
endpoint: mean survival time, dose: 35.0 mg/kg/injection, schedule: Q01DX001 (ip), vehicle: saline
  T/C: 120 % of control
endpoint: mean survival time, dose: 40.0 mg/kg/injection, schedule: Q01DX003 (ip), vehicle: saline
  T/C: 150 % of control and 173 % of control
endpoint: mean survival time, dose: 40.0 mg/kg/injection, schedule: Q01DX009 (ip), vehicle: saline
  T/C: 101 % of control and 104 % of control
endpoint: mean survival time, dose: 40.0 mg/kg/injection, schedule: Q01DX010 (ip), vehicle: saline
  T/C: 104 % of control
endpoint: mean survival time, dose: 40.0 mg/kg/injection, schedule: Q01DX Z (im), vehicle: saline
  T/C: 110 % of control
endpoint: mean survival time, dose: 40.0 mg/kg/injection, schedule: Q01DX Z (ip), vehicle: saline
  T/C: 89 % of control
endpoint: mean survival time, dose: 40.0 mg/kg/injection, schedule: Q#A X Z (ip), vehicle: saline
  T/C: 92 % of control
endpoint: mean survival time, dose: 60.0 mg/kg/injection, schedule: Q01DX003 (ip), vehicle: saline
  T/C: 156 % of control and 178 % of control
endpoint: mean survival time, dose: 70.0 mg/kg/injection, schedule: Q07DX003 (ip), vehicle: saline
  T/C: 178 % of control
endpoint: mean survival time, dose: 80.0 mg/kg/injection, schedule: Q01DX006 (iv), vehicle: saline
  T/C: 164 % of control
endpoint: mean survival time, dose: 80.0 mg/kg/injection, schedule: Q01DX Z (oral), vehicle: saline
  T/C: 100 % of control
endpoint: mean survival time, dose: 140.0 mg/kg/injection, schedule: Q01DX001 (ip), vehicle: saline
  T/C: 107 % of control
endpoint: mean survival time, dose: 280.0 mg/kg/injection, schedule: Q01DX001 (ip), vehicle: saline
  T/C: 102 % of control
endpoint: median survival time, dose: 5.0 mg/kg/injection, schedule: Q01DX009 (ip), vehicle: saline
  T/C: 100 % of control and 111 % of control
endpoint: median survival time, dose: 10.0 mg/kg/injection, schedule: Q01DX009 (ip), vehicle: saline
  T/C: 106 % of control and 122 % of control
endpoint: median survival time, dose: 20.0 mg/kg/injection, schedule: Q01DX009 (ip), vehicle: saline
  T/C: 166 % of control and 168 % of control
endpoint: median survival time, dose: 40.0 mg/kg/injection, schedule: Q01DX009 (ip), vehicle: saline
  T/C: 122 % of control

## COC(=O)C1=C(O)CCCC=C1C(=O)O
endpoint: mean survival time, dose: 100.0 mg/kg/injection, schedule: Q01DX001 (ip), vehicle: carboxymethylcellulose (CMC)
  T/C: 100 % of control
endpoint: mean survival time, dose: 200.0 mg/kg/injection, schedule: Q01DX001 (ip), vehicle: carboxymethylcellulose (CMC)
  T/C: 103 % of control
endpoint: mean survival time, dose: 400.0 mg/kg/injection, schedule: Q01DX001 (ip), vehicle: carboxymethylcellulose (CMC)
  T/C: 103 % of control

## CCNc1nc(C(F)(F)F)nc2[nH]ncc12
endpoint: mean survival time, dose: 100.0 mg/kg/injection, schedule: Q01DX001 (ip), vehicle: acetone
  T/C: 101 % of control
[1]
  T/C: 101 % of control
endpoint: mean survival time, dose: 200.0 mg/kg/injection, schedule: Q01DX001 (ip), vehicle: acetone
  T/C: 90 % of control
[2]
  T/C: 95 % of control
endpoint: mean survival time, dose: 400.0 mg/kg/injection, schedule: Q01DX001 (ip), vehicle: acetone
  T/C: 90 % of control
endpoint: mean survival time, dose: 400.0 mg/kg/injection, schedule: Q04DX003 (ip), vehicle: saline
  T/C: 97 % of control

## O=C1C(NC(=O)C(Cl)Cl)=C(N2CC2)C(=O)c2ccccc21
endpoint: mean survival time, dose: 100.0 mg/kg/injection, schedule: Q04DX003 (ip), vehicle: Klucel (hydroxypropylcellulose) (HPC)
  T/C: 98 % of control
endpoint: mean survival time, dose: 200.0 mg/kg/injection, schedule: Q04DX003 (ip), vehicle: Klucel (hydroxypropylcellulose) (HPC)
  T/C: 102 % of control
endpoint: mean survival time, dose: 400.0 mg/kg/injection, schedule: Q04DX003 (ip), vehicle: Klucel (hydroxypropylcellulose) (HPC)
  T/C: 98 % of control

## OCCSc1ccc(Cl)cc1
endpoint: mean survival time, dose: 100.0 mg/kg/injection, schedule: Q01DX009 (ip), vehicle: other
  T/C: 97 % of control
endpoint: mean survival time, dose: 200.0 mg/kg/injection, schedule: Q01DX009 (ip), vehicle: other
  T/C: 95 % of control

## CCCCCCCC(=O)Nc1ccc(C)cc1C
[3]
  T/C: 95 % of control
endpoint: mean survival time, dose: 200.0 mg/kg/injection, schedule: Q04DX003 (ip), vehicle: saline with Tween-80
  T/C: 98 % of control
[4]
  T/C: 94 % of control

## O=C(NCCBr)OCc1ccccc1
endpoint: mean survival time, dose: 50.0 mg/kg/injection, schedule: Q04DX003 (ip), vehicle: saline
  T/C: 98 % of control
[1]
  T/C: 98 % of control
[2]
  T/C: 101 % of control

## CC1(C)N=C(N)N=C(N)N1c1ccc(CN)cc1
[1]
  T/C: 109 % of control
[2]
  T/C: 101 % of control

## CCOC(=O)CCN(Cc1ccccc1)C(=S)Nc1ccccc1
endpoint: mean survival time, dose: 25.0 mg/kg/injection, schedule: Q01DX Z (ip), vehicle: methylcellulose (MC)
  T/C: 98 % of control

## CC(=O)n1cc(C=C2C(=O)CC(C)(C)CC2=O)c2ccccc21
endpoint: mean survival time, dose: 37.5 mg/kg/injection, schedule: Q01DX009 (ip), vehicle: Klucel (hydroxypropylcellulose) (HPC)
  T/C: 89 % of control
endpoint: mean survival time, dose: 75.0 mg/kg/injection, schedule: Q01DX009 (ip), vehicle: Klucel (hydroxypropylcellulose) (HPC)
  T/C: 95 % of control
endpoint: mean survival time, dose: 150.0 mg/kg/injection, schedule: Q01DX009 (ip), vehicle: Klucel (hydroxypropylcellulose) (HPC)
  T/C: 98 % of control

## CC(C)N=C(N)CSS(=O)(=O)O
endpoint: mean survival time, dose: 25.0 mg/kg/injection, schedule: Q04DX002 (ip), vehicle: Klucel (hydroxypropylcellulose) (HPC)
  T/C: 101 % of control
endpoint: mean survival time, dose: 50.0 mg/kg/injection, schedule: Q04DX002 (ip), vehicle: Klucel (hydroxypropylcellulose) (HPC)
  T/C: 97 % of control
endpoint: mean survival time, dose: 100.0 mg/kg/injection, schedule: Q04DX002 (ip), vehicle: Klucel (hydroxypropylcellulose) (HPC)
  T/C: 101 % of control and 102 % of control

## COC(=O)CCC(=O)CCC(C)C
endpoint: mean survival time, dose: 100.0 mg/kg/injection, schedule: Q01DX009 (ip), vehicle: saline with Tween-80
  T/C: 110 % of control
[3]
  T/C: 103 % of control
endpoint: mean survival time, dose: 200.0 mg/kg/injection, schedule: Q01DX009 (ip), vehicle: saline with Tween-80
  T/C: 92 % of control
endpoint: mean survival time, dose: 400.0 mg/kg/injection, schedule: Q01DX009 (ip), vehicle: saline with Tween-80
  T/C: 101 % of control
[4]
  T/C: 93 % of control
